Reference: US6737383B1, “Herbicidal oxadiazolidines” (priority 1999, dated 2004)

Experiments:
[1] = tested on: bedstraw; test: Test B pre/postemergence bedstraw; format: in vivo, Galium aparine
In short: (§1)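 Herbicidal effect was estimated by eye on a ten-point control scale after plants spent twelve to sixteen days in a greenhouse following soil or foliar treatment. Foliar sprays targeted plants at one to four leaves; all doses were formulated in a non-phytotoxic solvent with surfactant.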

[2] = tested on: blackgrass; test: Test B pre/postemergence blackgrass; format: in vivo, Alopecurus myosuroides
In short: as §1

[3] = tested on: surinam grass; test: Test B pre/postemergence surinam grass; format: in vivo, Brachiaria decumbens
In short: as §1

[4] = tested on: cocklebur; test: Test B pre/postemergence cocklebur; format: in vivo, Xanthium strumarium
In short: as §1

[5] = tested on: corn; test: Test B pre/postemergence corn; format: in vivo, Zea mays
In short: as §1

[6] = tested on: crabgrass; test: Test B pre/postemergence crabgrass; format: in vivo, Digitaria sanguinalis
In short: as §1

[7] = tested on: pigweed; test: Test B pre/postemergence pigweed; format: in vivo, Amaranthus retroflexus
In short: as §1

[8] = tested on: rape; test: Test B pre/postemergence rape; format: in vivo, Brassica napus
In short: as §1

[9] = tested on: soybean; test: Test B pre/postemergence soybean; format: in vivo, Glycine max
In short: as §1

[10] = tested on: sugar beet; test: Test B pre/postemergence sugar beet; format: in vivo, Beta vulgaris; conditions: for Plant response rating, Sugarbeets: Rate 250 g/ha
In short: as §1

[11] = tested on: velvetleaf; test: Test B pre/postemergence velvetleaf; format: in vivo, Abutilon theophrasti; conditions: for Plant response rating, Velvetleaf: Rate 250 g/ha
In short: as §1

[12] = tested on: wheat; test: Test B pre/postemergence wheat; format: in vivo, Triticum aestivum; conditions: for Plant response rating, Wheat: Rate 250 g/ha
In short: as §1

[13] = tested on: wild oat; test: Test B pre/postemergence wild oat; format: in vivo, Avena fatua; conditions: for Plant response rating, Wild oats: Rate 250 g/ha
In short: as §1

[14] = tested on: purple nutsedge; test: Test B pre/postemergence purple nutsedge; format: in vivo, Cyperus rotundus
In short: as §1

[15] = tested on: smallflower flatsedge; test: Test B flood test smallflower flatsedge; format: in vivo, Cyperus difformis
In short: (§2)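 Each value is a visual injury score relative to controls, with 10 meaning complete control and 0 no effect. Evaluation took place twelve to sixteen days after the 2-leaf-stage plants were treated and kept in the greenhouse.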

[16] = tested on: bamyardgrass; test: Test B flood test barnyardgrass; format: in vivo, Echinochloa crus-galli
In short: as §2

[17] = Postemergence, Rate 250 g/ha, scale 0 to 10, 0 no effect, 10 complete control
[18] = Preemergence, Rate 62 g/ha, scale 0 to 10 (0 no effect, 10 complete control)
[19] = Preemergence, Rate 125 g/ha, scale 0 to 10 (0 no effect, 10 complete control)
[20] = Preemergence, Rate 250 g/ha, scale of 0 to 10 where 0 is no effect and 10 is complete control
[21] = Preemergence, Rate 500 g/ha, scale 0 to 10 (0 no effect, 10 complete control)
[22] = Postemergence, Rate 125 g/ha, scale of 0 to 10 where 0 is no effect and 10 is complete control
[23] = Rate 62 g/ha, Postemergence, scale of 0 to 10 where 0 is no effect and 10 is complete control
[24] = Rate 500 g/ha, Postemergence, scale 0 to 10, 0 no effect, 10 complete control
[25] = Rate 250 g/ha, Postemergence, scale 0 to 10, 0 is no effect, 10 is complete control
[26] = Preemergence, Rate 125 g/ha, 0 is no effect, 10 is complete control
[27] = Preemergence, scale of 0 to 10 where 0 is no effect and 10 is complete control
[28] = Postemergence, scale 0 to 10, 0 is no effect, 10 is complete control
[29] = Rate 250 g/ha, headed Pre-emergence (flood test species), scale 0 to 10 (0 no effect, 10 complete control)
[30] = Rate 500 g/ha, headed Pre-emergence (flood test species), scale 0 to 10 (0 no effect, 10 complete control)

CC(C)N(C(=O)n1oc(=O)n(Cc2cccs2)c1=O)c1ccccc1 [Compound 103]
Bedstraw plant response rating [1, 17]: 0
Bedstraw plant response rating [1, 18]: 0
Plant response rating, Bedstraw [1, 19]: 0
Plant response rating, Bedstraw [1, 20]: 0
Bedstraw plant response rating [1, 21]: 0
Blackgrass plant response rating [2, 22]: 1
Blackgrass plant response rating [2, 17]: 4
Blackgrass plant response rating [2, 18]: 0
Plant response rating, Blackgrass [2, 19]: 0
Plant response rating, Blackgrass [2, 20]: 3
Blackgrass plant response rating [2, 21]: 5
Blackgrass plant response rating [2, 23]: 0
Blackgrass plant response rating [2, 24]: 4
B. signalgrass plant response rating ([3]; Postemergence, Rate 62 g/ha, scale 0 to 10, 0 is no effect, 10 is complete control): 0
B. signalgrass plant response rating [3, 17]: 0
B. signalgrass plant response rating [3, 18]: 1
Plant response rating, B. signalgrass [3, 19]: 5
Plant response rating, B. signalgrass [3, 20]: 7
B. signalgrass plant response rating [3, 21]: 7
B. signalgrass plant response rating ([3]; Rate 125 g/ha, Postemergence, scale 0 to 10, 0 no effect, 10 complete control): 0
B. signalgrass plant response rating ([3]; Rate 500 g/ha, Postemergence, scale of 0 to 10 where 0 is no effect and 10 is complete control): 2
Cocklebur plant response rating [4, 22]: 0
Cocklebur plant response rating [4, 17]: 0
Cocklebur plant response rating [4, 18]: 0
Plant response rating, Cocklebur [4, 19]: 0
Cocklebur plant response rating [4, 21]: 0
Cocklebur plant response rating [4, 23]: 0
Cocklebur plant response rating [4, 24]: 0
Corn plant response rating [5, 22]: 0
Corn plant response rating [5, 17]: 0
Corn plant response rating [5, 18]: 0
Plant response rating, Corn [5, 19]: 0
Plant response rating, Corn [5, 20]: 0
Corn plant response rating [5, 21]: 0
Corn plant response rating [5, 23]: 0
Corn plant response rating [5, 24]: 2
Crabgrass plant response rating [6, 22]: 4
Crabgrass plant response rating [6, 17]: 6
Crabgrass plant response rating [6, 18]: 2
Plant response rating, Crabgrass [6, 19]: 6
Plant response rating, Crabgrass [6, 20]: 9
Crabgrass plant response rating [6, 23]: 0
Crabgrass plant response rating [6, 24]: 9
Redroot pigweed plant response rating [7, 22]: 0
Redroot pigweed plant response rating [7, 18]: 0
Plant response rating, Redroot pigweed [7, 19]: 0
Plant response rating, Redroot pigweed [7, 20]: 6
Redroot pigweed plant response rating [7, 21]: 7
Redroot pigweed plant response rating [7, 23]: 0
Plant response rating, Redroot pigweed [7, 25]: 2
Redroot pigweed plant response rating [7, 24]: 4
Rape plant response rating [8, 22]: 0
Rape plant response rating [8, 17]: 1
Rape plant response rating [8, 18]: 0
Plant response rating, Rape [8, 19]: 0
Plant response rating, Rape [8, 20]: 0
Rape plant response rating [8, 21]: 0
Rape plant response rating [8, 23]: 0
Rape plant response rating [8, 24]: 3
Soybean plant response rating [9, 22]: 4
Soybean plant response rating [9, 18]: 0
Plant response rating, Soybean [9, 19]: 0
Plant response rating, Soybean [9, 20]: 0
Soybean plant response rating [9, 21]: 0
Soybean plant response rating [9, 23]: 4
Plant response rating, Soybean [9, 25]: 4
Soybean plant response rating [9, 24]: 6
Sugarbeets plant response rating [10, 22]: 2
Sugarbeets plant response rating [10, 18]: 0
Sugarbeets plant response rating (0 to 10 scale) [10, 26]: 0
Plant response rating, Sugarbeets [10, 27]: 0
Sugarbeets plant response rating [10, 21]: 4
Sugarbeets plant response rating [10, 23]: 1
Plant response rating, Sugarbeets [10, 28]: 2
Sugarbeets plant response rating [10, 24]: 3
Velvetleaf plant response rating [11, 22]: 0
Velvetleaf plant response rating [11, 18]: 0
Velvetleaf plant response rating (0 to 10 scale) [11, 26]: 0
Plant response rating, Velvetleaf [11, 27]: 3
Velvetleaf plant response rating [11, 21]: 3
Velvetleaf plant response rating [11, 23]: 0
Plant response rating, Velvetleaf [11, 28]: 1
Velvetleaf plant response rating [11, 24]: 4
Wheat plant response rating [12, 22]: 0
Wheat plant response rating [12, 18]: 0
Wheat plant response rating (0 to 10 scale) [12, 26]: 0
Plant response rating, Wheat [12, 27]: 0
Wheat plant response rating [12, 21]: 2
Wheat plant response rating [12, 23]: 0
Plant response rating, Wheat [12, 28]: 0
Wheat plant response rating [12, 24]: 0
Wild oats plant response rating [13, 22]: 0
Wild oats plant response rating [13, 18]: 0
Wild oats plant response rating (0 to 10 scale) [13, 26]: 0
Plant response rating, Wild oats [13, 27]: 3
Wild oats plant response rating [13, 21]: 6
Wild oats plant response rating [13, 23]: 0
Plant response rating, Wild oats [13, 28]: 0
Wild oats plant response rating [13, 24]: 0
Nutsedge plant response rating [14, 22]: 0
Nutsedge plant response rating [14, 17]: 0
Nutsedge plant response rating [14, 18]: 0
Plant response rating, Nutsedge [14, 19]: 0
Plant response rating, Nutsedge [14, 20]: 0
Nutsedge plant response rating [14, 21]: 0
Nutsedge plant response rating [14, 23]: 0
Nutsedge plant response rating [14, 24]: 0
S. Flatsedge plant response rating ([15]; Pre-emergence, Rate 1000 g/ha, scale 0 to 10 (0 no effect, 10 complete control)): 0
S. Flatsedge plant response rating [15, 29]: 0
Plant response rating, S. Flatsedge [15, 30]: 0
S. Flatsedge plant response rating ([15]; Rate 2000 g/ha, Pre-emergence (as headed), scale 0 to 10): 0
Barnyardgrass plant response rating [16, 29]: 0
Plant response rating, Barnyardgrass [16, 30]: 0
Barnyardgrass plant response rating ([16]; Rate 1000 g/ha, Pre-emergence (as headed), scale 0 to 10): 0
Barnyardgrass plant response rating ([16]; Rate 2000 g/ha, Pre-emergence (as headed), scale 0 to 10, 0 no effect, 10 complete control): 0
